In PubChem BioAssay (NCI):
Where “and” joins values, the source holds several entries; their conditions need not be identical. Identical values can stand only once.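 Interpolation was linear, between the two tested concentrations surrounding the appropriate level; five concentrations were tested over 48 hours in 96-well plates. Here, GI50 denotes the concentration required for 50% inhibition of growth. TGI: total growth inhibition.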

Key:
Experiment in all cases: inhibition of tumour cell growth, NCI panel, 48 h
SNB-19 CNS = test system: SNB-19 CNS
OVCAR-5 ovarian = test system: OVCAR-5 ovarian
SNB-75 CNS = test system: SNB-75 CNS
OVCAR-4 ovarian = test system: OVCAR-4 ovarian
HT29 colon = test system: HT29 colon
RPMI-8226 leukemia = test system: RPMI-8226 leukemia
TK-10 renal = test system: TK-10 renal
HL-60(TB) leukemia = test system: HL-60(TB) leukemia
HOP-92 NSCLC = test system: HOP-92 NSCLC
UO-31 renal = test system: UO-31 renal

| Compound | TGI (SNB-19 CNS) | TGI (OVCAR-5 ovarian) | TGI (SNB-75 CNS) | TGI (OVCAR-4 ovarian) | TGI (HT29 colon) | TGI (RPMI-8226 leukemia) | TGI (TK-10 renal) | TGI (HL-60(TB) leukemia) | TGI (HOP-92 NSCLC) | TGI (UO-31 renal) | GI50 (SNB-19 CNS) | GI50 (OVCAR-5 ovarian) | GI50 (TK-10 renal) | GI50 (UO-31 renal) | GI50 (SNB-75 CNS) | GI50 (OVCAR-4 ovarian) | GI50 (HT29 colon) | GI50 (RPMI-8226 leukemia) | GI50 (HL-60(TB) leukemia) | GI50 (HOP-92 NSCLC) |
| --- | --- | --- | --- | --- | --- | --- | --- | --- | --- | --- | --- | --- | --- | --- | --- | --- | --- | --- | --- | --- |
| N#Cc1c(-c2ccc(Cl)cc2)c(-c2ccc(Cl)cc2)nn(CCOC(=O)CCC(=O)O)c1=O | > 49.2 µM | > 100 µM | > 75.7 µM | > 91.6 µM | 6.39 µM | > 60 µM | > 100 µM | 10.5 µM | 15.2 µM | 50 µM |  |  |  |  |  |  |  |  |  |  |
| CCOCC(=O)N[C@H]1CCc2cc(OC(=O)COCC)c(OC)c(OC)c2-c2ccc(SC)c(=O)cc21 | > 100 µM | > 100 µM | > 100 µM | > 100 µM | > 100 µM | > 100 µM | > 100 µM | 0.0313 µM and 0.0326 µM | 0.08 µM | > 100 µM | 0.0283 µM | 0.0549 µM | 14.9 µM | 680 nM |  |  |  |  |  |  |
| COC(=O)c1c(C)cc2c(c1O)C1(O)C(=O)c3cc4c(c(O)c3C(=O)C1(OC)C(O)C2)C(=O)C=C(NC1OC(C)C(OC)C(O)C1OC)C4=O (centres undefined) | 1.22 µM | 0.401 µM | 0.277 µM | 0.213 µM | 0.222 µM | 0.303 µM | 0.293 µM | 0.184 µM | 0.443 µM | 0.427 µM |  |  |  |  |  |  |  |  |  |  |
| COc1ccc(N(C)c2nc(Cl)nc3ccn(C)c23)cc1 | > 100 µM | > 100 µM | > 100 µM | > 100 µM | 0.12 µM | > 100 µM | > 100 µM | < 0.01 µM | 67.5 µM | > 100 µM | < 0.01 µM | 7.54 µM | 91.3 µM | 139 nM | < 0.01 µM | < 0.01 µM | < 10 nM | < 10 nM | < 10 nM | 1.79 µM |
| O=C(Nc1ccc([N+](=O)[O-])cc1C(=O)O)c1ccc([N+](=O)[O-])cc1 | > 100 µM | > 100 µM | > 100 µM | > 100 µM | > 100 µM | 57.7 µM | > 100 µM | 56.7 µM | 36.6 µM | > 100 µM |  |  |  |  |  |  |  |  |  |  |
| O=C1C2C(C(=O)N1c1ccccc1)C1(c3ccccc3)OC2(c2ccccc2)c2ccccc21 (centres undefined) | > 100 µM | > 100 µM | > 100 µM | > 100 µM | > 100 µM | > 100 µM | > 100 µM | > 100 µM | > 100 µM | > 100 µM |  |  |  |  |  |  |  |  |  |  |
| COc1cc2c3c(n(CCCNC(=O)OCC4c5ccccc5-c5ccccc54)c(=O)c2cc1OC)-c1cc2c(cc1C3=O)OCO2 | > 100 µM | > 100 µM | > 86.4 µM | > 100 µM | > 100 µM | > 100 µM | > 100 µM | > 100 µM | > 100 µM | > 100 µM | > 76.4 µM | > 100 µM | > 56.2 µM | > 100000 nM | 34.8 µM | > 100 µM | > 100000 nM | > 28300 nM | > 81200 nM | 48.8 µM |
| NC(N)=N/N=C(/c1ccccc1)c1ccc(Cl)cc1 | > 100 µM | > 100 µM | 70.2 µM | > 100 µM | 24.9 µM | 26.6 µM | > 100 µM | 62.2 µM | 90.5 µM | > 100 µM | 87.2 µM | 47.3 µM | 32 µM | 17200 nM | 6.17 µM | 19 µM | 2930 nM | 1530 nM | 1340 nM | 4.09 µM |
